Measurements published in ChEMBL document CHEMBL5291721, “A preclinical secondary pharmacology resource illuminates target-adverse drug reaction associations of marketed drugs” (Nat Commun, 2023).
Where a SMILES comes first, the peptide text is derived from it.

Experiments:
Androgen receptor [1] = target: T1, Androgen receptor (Rattus norvegicus, UniProt P15207)
T1 sequence (P15207 whole entry): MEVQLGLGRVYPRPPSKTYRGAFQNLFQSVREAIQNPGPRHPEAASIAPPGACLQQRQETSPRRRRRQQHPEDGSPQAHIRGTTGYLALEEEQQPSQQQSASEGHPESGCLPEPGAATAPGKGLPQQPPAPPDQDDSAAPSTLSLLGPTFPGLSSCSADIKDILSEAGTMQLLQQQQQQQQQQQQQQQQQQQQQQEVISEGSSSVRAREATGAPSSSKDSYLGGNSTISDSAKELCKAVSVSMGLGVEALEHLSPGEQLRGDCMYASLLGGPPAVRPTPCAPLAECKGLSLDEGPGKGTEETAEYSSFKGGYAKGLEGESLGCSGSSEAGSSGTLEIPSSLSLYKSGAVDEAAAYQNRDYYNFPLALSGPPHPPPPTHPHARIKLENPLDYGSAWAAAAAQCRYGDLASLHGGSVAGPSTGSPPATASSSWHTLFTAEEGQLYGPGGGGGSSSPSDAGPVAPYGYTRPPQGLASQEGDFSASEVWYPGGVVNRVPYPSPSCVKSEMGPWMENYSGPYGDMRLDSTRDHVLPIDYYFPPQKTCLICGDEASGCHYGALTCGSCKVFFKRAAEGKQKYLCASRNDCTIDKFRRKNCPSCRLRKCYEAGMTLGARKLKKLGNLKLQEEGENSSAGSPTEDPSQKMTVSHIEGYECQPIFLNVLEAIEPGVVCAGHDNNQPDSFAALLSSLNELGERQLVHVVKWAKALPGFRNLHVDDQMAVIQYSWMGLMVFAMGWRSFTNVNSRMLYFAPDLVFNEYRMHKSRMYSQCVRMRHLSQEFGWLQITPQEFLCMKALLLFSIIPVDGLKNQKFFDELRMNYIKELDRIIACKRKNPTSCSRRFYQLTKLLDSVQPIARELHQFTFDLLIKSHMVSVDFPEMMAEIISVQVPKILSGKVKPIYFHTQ

Glucagon receptor = Glucagon receptor (Homo sapiens, UniProt P47871)
Progesterone receptor = target: T2, Progesterone receptor (Homo sapiens, UniProt P06401)
T2 sequence (P06401 whole entry): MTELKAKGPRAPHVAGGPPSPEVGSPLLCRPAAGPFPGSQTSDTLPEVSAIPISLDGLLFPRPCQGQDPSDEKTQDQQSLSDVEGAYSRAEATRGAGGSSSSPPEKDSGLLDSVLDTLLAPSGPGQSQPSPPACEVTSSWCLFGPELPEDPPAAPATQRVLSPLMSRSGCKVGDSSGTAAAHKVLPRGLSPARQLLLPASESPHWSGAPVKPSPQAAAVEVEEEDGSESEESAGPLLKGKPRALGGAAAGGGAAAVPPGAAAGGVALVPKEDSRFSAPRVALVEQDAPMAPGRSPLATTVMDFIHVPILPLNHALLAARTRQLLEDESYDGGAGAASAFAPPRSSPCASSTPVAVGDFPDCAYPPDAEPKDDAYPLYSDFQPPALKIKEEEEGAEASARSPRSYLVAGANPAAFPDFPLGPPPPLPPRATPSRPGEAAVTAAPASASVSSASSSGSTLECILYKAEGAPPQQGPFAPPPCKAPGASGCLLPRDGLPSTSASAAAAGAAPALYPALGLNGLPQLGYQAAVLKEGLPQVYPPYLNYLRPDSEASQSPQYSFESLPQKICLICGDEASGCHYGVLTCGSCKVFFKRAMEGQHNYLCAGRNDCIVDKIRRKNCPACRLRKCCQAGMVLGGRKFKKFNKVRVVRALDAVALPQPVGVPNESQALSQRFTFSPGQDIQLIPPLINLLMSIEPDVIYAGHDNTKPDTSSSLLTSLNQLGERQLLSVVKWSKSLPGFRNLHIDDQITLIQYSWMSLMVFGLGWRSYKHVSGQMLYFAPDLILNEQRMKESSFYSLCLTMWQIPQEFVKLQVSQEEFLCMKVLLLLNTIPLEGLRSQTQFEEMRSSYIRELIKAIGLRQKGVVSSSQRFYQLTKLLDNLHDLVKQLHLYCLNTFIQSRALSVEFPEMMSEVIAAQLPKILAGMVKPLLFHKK

[2] = target: T3, Alpha-2A adrenergic receptor (Homo sapiens, UniProt P08913)
T3 sequence (P08913 whole entry): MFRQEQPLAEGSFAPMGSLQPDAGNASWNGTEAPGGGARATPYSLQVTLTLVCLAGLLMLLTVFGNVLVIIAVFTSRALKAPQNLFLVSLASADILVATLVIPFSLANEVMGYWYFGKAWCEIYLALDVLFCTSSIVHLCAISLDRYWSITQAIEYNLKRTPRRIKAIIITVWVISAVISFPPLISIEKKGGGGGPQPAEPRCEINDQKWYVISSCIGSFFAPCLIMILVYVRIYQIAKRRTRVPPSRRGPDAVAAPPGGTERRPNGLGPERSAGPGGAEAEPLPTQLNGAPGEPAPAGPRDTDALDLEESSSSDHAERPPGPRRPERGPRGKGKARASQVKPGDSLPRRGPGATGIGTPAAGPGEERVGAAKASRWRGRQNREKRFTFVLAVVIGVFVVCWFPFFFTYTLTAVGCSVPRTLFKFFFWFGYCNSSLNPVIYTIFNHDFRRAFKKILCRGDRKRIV

[3] = target: T4, Neuropeptide Y receptor type 2 (Homo sapiens, UniProt P49146)
T4 sequence (P49146 whole entry): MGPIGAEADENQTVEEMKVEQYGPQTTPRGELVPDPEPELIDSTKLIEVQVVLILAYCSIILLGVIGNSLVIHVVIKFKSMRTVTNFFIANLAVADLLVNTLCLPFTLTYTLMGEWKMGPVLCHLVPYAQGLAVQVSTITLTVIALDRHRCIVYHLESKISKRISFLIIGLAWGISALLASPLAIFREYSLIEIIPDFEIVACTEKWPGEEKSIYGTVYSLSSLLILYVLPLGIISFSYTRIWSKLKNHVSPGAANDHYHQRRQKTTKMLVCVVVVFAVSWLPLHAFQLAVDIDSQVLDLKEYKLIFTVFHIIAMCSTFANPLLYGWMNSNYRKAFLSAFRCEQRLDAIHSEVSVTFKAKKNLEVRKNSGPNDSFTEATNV

Androgen receptor [4] = target: T1, Androgen receptor; format: functional
Also: assay procedure not described here.

Sequence of Glucagon receptor (P47871 whole entry): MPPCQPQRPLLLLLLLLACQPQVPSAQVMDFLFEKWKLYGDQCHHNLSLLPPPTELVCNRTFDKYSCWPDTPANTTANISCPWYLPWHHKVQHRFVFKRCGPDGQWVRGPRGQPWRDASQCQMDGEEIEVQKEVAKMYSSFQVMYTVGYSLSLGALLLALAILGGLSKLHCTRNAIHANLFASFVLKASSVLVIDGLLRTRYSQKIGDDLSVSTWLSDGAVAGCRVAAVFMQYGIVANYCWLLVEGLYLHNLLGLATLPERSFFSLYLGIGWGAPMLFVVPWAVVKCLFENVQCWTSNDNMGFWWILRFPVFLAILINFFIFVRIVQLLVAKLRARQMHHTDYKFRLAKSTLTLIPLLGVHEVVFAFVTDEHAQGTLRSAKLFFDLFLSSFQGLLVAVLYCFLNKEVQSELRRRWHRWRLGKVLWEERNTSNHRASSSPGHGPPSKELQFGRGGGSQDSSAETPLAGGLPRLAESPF

CC(C)CN(C[C@@H](O)[C@H](Cc1ccccc1)NC(=O)O[C@H]1CCOC1)S(=O)(=O)c1ccc(N)cc1
AC50 (Androgen receptor [1]): > 10 µM

CC1=C(CC(=O)O)c2cc(F)ccc2/C1=C\c1ccc([S+](C)[O-])cc1 (stereo not drawn)
AC50 (Glucagon receptor): > 30 µM
AC50 (Progesterone receptor): > 30 µM
AC50 [2]: > 10 µM
AC50 [3]: > 30 µM

O=C(O)c1ccc2nc(-c3cc(Cl)cc(Cl)c3)oc2c1
AC50 (Androgen receptor [4]): > 30 µM

NS(=O)(=O)c1ccc(N2CCCCS2(=O)=O)cc1
AC50 (Androgen receptor [4]): > 30 µM

OCC(O)COc1ccc(Cl)cc1 (stereo not drawn)
AC50 (Androgen receptor [1]): > 10 µM

O=C(O[C@H]1C[N+]2(CCCOc3ccccc3)CCC1CC2)C(O)(c1cccs1)c1cccs1 [ACLIDINIUM BROMIDE]
AC50 (Glucagon receptor): > 30 µM
AC50 (Progesterone receptor): > 30 µM
AC50 [2]: 2.27 µM
AC50 [3]: > 30 µM

C[C@H](N)C(=O)N[C@@H](CCC(N)=O)C(=O)O [ALANYL GLUTAMINE] (H-Ala-Gln-OH)
AC50 (Androgen receptor [4]): > 30 µM

Cc1nnc2n1-c1ccc(Cl)cc1C(c1ccccc1)=NC2 [ALPRAZOLAM]
AC50 (Glucagon receptor): > 30 µM
AC50 (Progesterone receptor): > 30 µM
AC50 [2]: > 10 µM
AC50 [3]: > 30 µM

COc1ccc(-n2nc(C(N)=O)c3c2C(=O)N(c2ccc(N4CCCCC4=O)cc2)CC3)cc1 [APIXABAN]
AC50 (Androgen receptor [4]): > 30 µM

C[C@@H](Cc1ccccc1)N(C)Cc1ccccc1 [BENZPHETAMINE]
AC50 (Androgen receptor [1]): > 10 µM

CC(NC(C)(C)C)C(=O)c1cccc(Cl)c1 (stereo not drawn) [BUPROPION]
AC50 (Glucagon receptor): > 30 µM
AC50 (Progesterone receptor): > 30 µM
AC50 [2]: > 10 µM
AC50 [3]: > 30 µM

Oc1cc(O)c2c(c1)O[C@H](c1ccc(O)c(O)c1)[C@@H](O)C2 [CIANIDANOL]
AC50 (Glucagon receptor): > 30 µM
AC50 (Progesterone receptor): > 30 µM
AC50 [2]: > 10 µM
AC50 [3]: > 30 µM

CCCO[C@H]1[C@@H]([C@@H](COCc2ccc(Cl)cc2)OCc2ccc(Cl)cc2)OC(OCC)[C@@H]1O (stereo partly drawn) [CLOBENOSIDE]
AC50 (Androgen receptor [4]): > 30 µM

O=C1CN=C(c2ccccc2Cl)c2cc([N+](=O)[O-])ccc2N1 [CLONAZEPAM]
AC50 (Glucagon receptor): > 30 µM
AC50 (Progesterone receptor): > 30 µM
AC50 [2]: > 10 µM
AC50 (Androgen receptor [1]): > 30 µM
AC50 [3]: > 30 µM

C=C(c1ccccc1OCc1cccc(Cl)c1)n1ccnc1 [CROCONAZOLE]
AC50 (Androgen receptor [1]): > 30 µM

CC(=O)Oc1cccc2c1C(=O)c1c(OC(C)=O)cc(C(=O)O)cc1C2=O [DIACEREIN]
AC50 (Androgen receptor [4]): > 10 µM

CCN(CC)C(C)C(=O)c1ccccc1 (stereo not drawn) [DIETHYLPROPION]
AC50 (Glucagon receptor): > 30 µM
AC50 (Progesterone receptor): 0.22 µM
AC50 [2]: 4.46 µM
AC50 (Androgen receptor [1]): > 30 µM
AC50 [3]: > 30 µM

OCCN(CCO)c1nc(N2CCCCC2)c2nc(N(CCO)CCO)nc(N3CCCCC3)c2n1 [DIPYRIDAMOLE]
AC50 (Progesterone receptor): > 30 µM
AC50 (Androgen receptor [1]): > 30 µM

Cc1ccc(-c2ncc(Cl)cc2-c2ccc(S(C)(=O)=O)cc2)cn1 [ETORICOXIB]
AC50 (Glucagon receptor): > 30 µM
AC50 (Progesterone receptor): > 30 µM
AC50 [2]: > 10 µM
AC50 (Androgen receptor [1]): > 30 µM
AC50 [3]: > 30 µM

Cc1cnc(Nc2ccc(OCCN3CCCC3)cc2)nc1Nc1cccc(S(=O)(=O)NC(C)(C)C)c1 [FEDRATINIB]
AC50 (Progesterone receptor): > 30 µM
AC50 (Androgen receptor [1]): > 30 µM

CCOC(=O)C1=C(C)NC(C)=C(C(=O)OC)C1c1cccc(Cl)c1Cl (stereo not drawn) [FELODIPINE]
AC50 (Glucagon receptor): > 30 µM
AC50 (Progesterone receptor): 2.6 µM
AC50 [2]: > 10 µM
AC50 [3]: > 30 µM
